In US7563862B2, “Neural regeneration peptides and methods for their use in treatment of brain damage” (Neuren Pharmaceuticals Limited, priority 2001, dated 2009):
Ends that are not written are not given here.

How the values were obtained:
hypoxic-ischemic injury = hypoxic-ischemic injury (HI) in adult rats, histological tissue damage score; type: in vivo, rat; conditions: five days after insult; for neuroprotection: ICV 2 hrs after hypoxia
Method: To test the efficacy of NRPs in vivo studies were carried out in rats that had been exposed to hypoxic-ischemic injury (HI). Adult rats (50 days old, Wistar, 250-300 g, male) were used. The modified Levine model preparation and experimental procedures were used (Rice et al, 1981, Ann. Neurol. 9: 131-141; Guan et al J., 1993, Cereb. Blood Flow Metab.: 13(4): 609-16). These procedures in brief, consist of an HI injury induced by unilateral carotid artery ligation followed by inhalational asphyxia in the animals with an implanted lateral ventricular cannula. A guide cannula was stereotaxically placed on the top of the dura 1.5 mm to the right of the mid-line and 7.5 mm anterior to the interaural zero plane under halothane anaesthesia. The right carotid artery was double ligated two days after the cannulation. After a 1-hour recovery period from anaesthesia, each of the rats was placed in an incubator where the humidity (90±5%) and temperature ([…]) were controlled for another hour, and then each of the rats was exposed to hypoxia (6% oxygen) for 10 min. The animals were kept in the incubator for an additional 2 hours before treatment.
Rats were treated intracerebral ventricularly (icv) with 5 nM (n=12), 50 nM (n=12) or 500 nM of NRP-4 segment PQ (PGRAEAGGQ; SEQ ID NO:43) dissolved in saline, or vehicle (n=10) (normal saline) 2 hours after hypoxic-ischemic insult.
Histological examination was performed on rats 5 days after the hypoxic-ischemic injury. The rats were killed with an overdose of sodium pentobarbital and were perfused transcardially with normal saline followed by 10% formalin. The brains were kept in the same fixative for a minimum of 2 days before being processed using a standard paraffin imbedding procedure.
Coronal sections 8 μm in thickness were cut from the striatum, cerebral cortex and hippocampus and were stained with thionin and acid fuchsin. The severity of tissue damage was scored in the striatum, cortex and the CA1-2, CA3, CA4 and dentate gyrus of the hippocampus. […]

cerebellar microexplants [1] = experiment: cerebellar microexplant survival assay, 3-NP/glutamate injury; type: cell-based, rat
Method: Toxicological and drug administration experiments were designed such that 1/100 parts of toxin and neuroprotective drug were administered simultaneously to the freshly prepared cerebellar microexplants derived from P-4 or P8 rats. Glutamate was prepared as a 50 mM stock solution in MilliQ water while 50 mM 3-nitropropionic acid was pH-adjusted (pH 6.8-7.2) in MilliQ water. The concentrations of the oxidative stress inducing toxin, 3-nitropropionic acid (3-NP), and the excitotoxin, glutamate, in the assay were 0.5 mM each. Lyophilized peptides were reconstituted in PBS or 100 μg/ml human transferrin as a 10 μM stock solution. Subsequently, serial dilutions were made. Cerebellar microexplants were cultivated for 48-72 hours at 34° C., 5% CO2 in air and 100% humidity before they were fixed by increasing amounts of paraformaldehyde (0.4%, 1.2%, 3% and 4%—each treatment 2-3 min).
For statistical analysis of survival, four fields (each field having an area of 0.65 mm^2) of each fixed cerebellar culture with the highest cell densities were chosen, and cells displaying neurite outgrowth were counted. Statistical significance was measured by Student's t-test.
Laminated cerebellar cortex was extracted from P3/4, P7/8 rat pups and triturated through gauze having a 125 μm pore size to obtain uniformly sized microexplants. After centrifugation for 3 minutes at 61 g and the pellet was resuspended in StartV medium (Biochrom) and the suspension seeded on poly-D-lysine coated coverslips in 6-well plates and incubated for 3 hrs to allow adherence, before 1 ml StartV per well was added. As described previously, glutamate/3-NP and NRP were also added. The explants are cultivated at 34° C. at 5% CO2 and 100% humidity for 48-72 hrs. BrdU was administered at start of cultivation for proliferation rate measurements and cells are counted per microscopic field after 48-72 hrs.
Cerebellar Microexplants were prepared as described in Example 9 with the addition of SDF-1 as described, in addition to glutamate/3-NP, and NRP.
Cerebellar microexplants were prepared as described in Example 9 with the addition of SDF-1, Wortmannin and PD98059 (both Calbiochem), as described, in addition to glutamate/3-NP, and NRP.

[2] = tested on: embryonic cerebellar microexplants; experiment: neural cell proliferation in embryonic cerebellar microexplants; type: cell-based
Description: In another set of studies, we determined effects of NRP-5 RG on induction of neural cell proliferation in embryonic cerebellar microexplants as described herein.

mouse neural stem cells = experiment: haptotactic migration assay, mouse neural stem cells; type: cell-based
Method: NRPs were tested for migration-inducing/chemoattractive activity on mouse neural stem cells, EGF-dependent immortalized mouse neural stem cell line MEB5 and wild-type PC-12 cells in a haptotactic migration assay as described below.
Initial NRP Coating. Control wells of Transwell plates (Coming) with 12 μm pore size were coated in 1.5 ml of the BSA/PBS vehicle. Remaining plates were coated using various concentrations of NRPs ranging between 1-100 ng/ml (prepared in PBS containing 10 ug/ml BSA). The plates were then incubated at 37° C. for 1 hr to coat. Wells were then rinsed 2× with 1 ml sterile PBS.
Laminin ([…]) for MEB-5 cells, PDL (50 μg/ml)+Matrigel for mouse primary stem cells and fibronectin (25 ug/ml)+matrigel for PC-12 cells were used as extracellular matrix (ECM) coating for the cells. All ECM compounds were diluted in PBS. 1.5 ml of the ECM per well was incubated for 2 hrs at room temperature. The wells were then rinsed once with Iml serum-free media (e.g. NB/B27) followed by 1 ml PBS wash.
A 5 ug/mL PDL/PLL mixture (in PBS) was used to coat inserts. Subsequently the inserts were rinsed with MilliQ water.
Transferring to Media and Cell Seeding: Appropriate medium (MEB-5 cells: DMEM-high glucose+N2 (growth medium supplement from Invitrogen)+10 ng/biotin+2 mM L-glutamine, primary stem cells: NSA-medium from Euroclone and for PC-12 cells: NB/B27 medium) was transferred into the 12-well plates. […] Plates were fixed at 1-2 days in vitro (DIV).
Fixation: Inserts were discarded and wells fixed in successive dilutions of PFA (0.4, 1.2, 3 and 4%) for 3-5min in each dilution. […] The wells were rinsed and stored in PBS until counting.
A haptotactic migration assay was performed according to the description of Example 10 using rat NRP-9SD (SEQ ID NO:34) (4 nM) and mouse NRP-7SW (SEQ ID NO:24) (0.4 nM) as attractants in a Boyden chamber

cerebellar microexplants [3] = conditions: AT2 receptor agonist, 96 hours after start of cultivation (Cote et al., 1999); cited from earlier work
cerebellar microexplants [4] = experiment: cerebellar microexplants, oxidative stress by 0.1 mM hydrogen peroxide; type: cell-based; conditions: 48 hrs
Method: In this series of experiments, we studied whether NRP-4 Segment PQ (“NRP-4 PQ”) was able to protect cerebellar microexplanted cells from oxidative injury. We exposed cells to vehicle, 0.1 mM hydrogen peroxide or different concentrations of NRP-4 PQ in vehicle. […] Although the mechanism for this potentiation of neurite outgrowth is uncertain, it may relieve the stresses associated with creating or maintaining the microexplants themselves.

| Substance | neuroprotection (hypoxic-ischemic injury) | higher neuroprotection than SEQ ID NO:46 (cerebellar microexplants [1]) [%] | times higher potency than SEQ ID NO:46 (cerebellar microexplants [1]) | concentration of maximal proliferation-inducing activity [2] [pM] | greater chemoattractive effect than control (BSA-containing) medium (mouse neural stem cells) [%] | longest migration distances (cerebellar microexplants [3]) | neuroprotection within all analysed brain regions (hypoxic-ischemic injury; 9 ng/20 μl icv 2 hrs after hypoxia) [%] | neuroprotection (cerebellar microexplants [4]) |
| --- | --- | --- | --- | --- | --- | --- | --- | --- |
| REGRRDAPGRAGG-NH2 [NRP-5 segment RG, 13-mer fragment of NRP-5] | substantial neuroprotection in all analysed brain regions | 20 | 10^6 to 10^7 times | 100 | 42.1 |  |  |  |
| CGP-42112 |  |  |  |  |  | around 550 im |  |  |
| PGRAEAGGQ-NH2 [NRP-4 segment PQ, 9-mer of NRP-4] | substantial neuroprotection in all analysed brain regions |  |  |  |  |  | 100 | even greater than that of control explants receiving no peroxide |
